row,Compound,melting point
1,CC1CCN(c2ccc(C(=O)Nc3ccc4nc(CN5CCCC5)ccc4c3)cc2)CC1,200 to 202 °C
2,O=[N+]([O-])c1cnc2ccc(Oc3ccc(CNc4ncncc4Cl)cc3)nn12,185 °C
3,COc1ccc2c(c1)C(=O)c1c-2c(N2CCNCC2)nc2ccccc12,150 to 151 °C
4,CS(=O)c1ccc2ncn(C=CC(=O)O)c(=O)c2c1 (configuration not stated),275 to 276 °C
5,Cc1ccccc1-n1ccc2c(Cl)nc3c(C)cccc3c21,135 to 137 °C
6,CN1CCc2c(cccc2NC(=O)c2ccccc2F)C1,112 °C
7,O=C(O)[C@@H](CCN1Cc2ccccc2C1=O)Oc1c(Br)cc(-c2c3ccccc3c(Br)c3sc4ccccc4c23)cc1Br,239 to 241 °C
8,CCCOCC1(C)CCCOc2cc(/C=C/c3ccc(C(=O)O)cc3)ccc21 (configuration not stated),164 to 165 °C
9,N#Cc1c(-c2ccc(Cl)cc2)c(-c2ccc(Cl)cc2)n[nH]c1=O,271 to 272 °C
10,COC(=O)c1cc(N)cc(N)c1SCc1ccccc1,80 to 82 °C
11,CC(C)(C)OC(=O)CSc1cccc(-c2nc(=O)c3ccccc3s2)n1,170 °C
12,Cc1cc2cc(C#CCO)ccc2o1,102 °C
13,CCOC(=O)c1csc(NCc2ccccc2)n1,132 to 136 °C
14,Cc1ccccc1Oc1ccccc1C(=O)O,133 to 134 °C
15,CSc1ccc(C(=O)C(=O)c2ccc(Cl)c(Cl)c2)cc1,249 to 251 °C
16,Cc1oc(-c2ccccc2)nc1CCOc1ccc(C=C2SC(=O)NC2=O)cn1,195 to 196 °C
17,O=C(O)c1ccc2c(c1)C(=O)NC(C(Cl)(Cl)Cl)N2 (configuration not stated),> 280 °C
18,Cc1cccc(/C=C/c2nc(COc3ccc(CCCCn4ccnc4CCO)cc3)co2)c1,109 to 111 °C
19,COc1ccc2c(c1)S(=O)(=O)N(CCCN1CCN(c3ncccn3)CC1)C(=O)N2,178 °C
20,O=C1[C@@H]2CSC(c3ccccc3)N2C(=O)N1Cc1ccccc1 (some centres not stated),79 °C
21,Cc1ccnc2c1C(=O)CC(c1cccs1)C2 (configuration not stated),105 to 107 °C
22,COc1ccc(Br)c(/C=C/c2cc(/C=C/c3ccc4cc[nH]c4c3)[nH]n2)c1,103 to 109 °C
23,Cc1c(C)c2c(c(C)c1NCc1cccs1)C(c1ccc(C(C)C)cc1)C(C)(C)O2 (configuration not stated),101 to 103 °C
24,CC(C)C(NC(=O)NCc1ccccn1)C(=O)NC(Cc1ccccc1)C(O)C(Cc1ccccc1)NC(=O)C(NC(=O)NCc1ccccn1)C(C)C (configuration not stated),198 to 199 °C
25,CCN(CC)CCSc1nnc(SCN2C(=O)c3ccccc3S2(=O)=O)s1,93 to 94.5 °C

row,Compound,melting point
1,O=C(N[C@H](Cc1ccc(C(F)(F)F)cc1)[C@H](O)c1ccc(F)cc1)c1ccc(C(F)(F)F)cc1 (racemic),162 to 163 °C
2,CC(CCC(=O)C(C)(C)O)C1CCC2C3CC(O)C4CC(O)CCC4(C)C3CCC12C (configuration not stated),189 to 191 °C
3,COc1ccc2cc(NC(C)=O)cc(C)c2n1,193 to 196 °C
4,Fc1ccc(C2OC(=S)OC2(Cn2cncn2)c2ccc(Cl)cc2Cl)cc1 (configuration not stated),169 to 170 °C
5,CCOC(=O)c1cnnn1C[C@@H]1CN(c2ccc(N3CCC(=CC#N)CC3)c(F)c2)C(=O)O1,70 to 72 °C
6,OC(CN1CCN(C(c2ccccc2)c2ccccc2)CC1)c1ccc(OCc2ccccc2)cc1OCc1ccccc1 (configuration not stated),151 °C
7,CN(C(=O)OCc1ccccc1)c1ccc(OCC(=O)O)cc1,96 to 97 °C
8,CC1(C)c2cc(O)ccc2OC1O (configuration not stated),78 to 81 °C
9,Fc1ccc(Nc2nc(NCc3ccc(Cl)nc3)nc(NN=Cc3ccc(OC(F)(F)F)cc3)n2)cc1C(F)(F)F,117 to 125 °C
10,Cc1ccc2c(c1)oc1c(C(=O)NC34CC5CC(CC(C5)C3)C4)nn(-c3ccc(Cl)cc3Cl)c12,210 to 212 °C
11,COc1cc(N2CCN(C)CC2)c2oc(C(=O)Nc3ccc(N4CCN(C(=O)CCO)CC4)cc3)cc(=O)c2c1,195 to 197 °C
12,O=S(=O)(c1ccccc1)N1CCC(C(O)(c2ccc(F)cc2)c2ccc(F)cc2)CC1,142 to 144 °C
13,CC(Cl)(Cl)C(NC(=O)c1cccc(Cl)c1)NC(=NC#N)Nc1ccc(C(F)(F)F)nc1 (configuration not stated),191 to 192 °C
14,COc1ccccc1-c1nc2cc(NC(=O)c3c(C(=O)O)cnn3C)ccn2n1,283 °C
15,CC(C(=O)O)c1ccc2cc(OCC(=O)O)ccc2c1 (configuration not stated),185 to 188 °C
16,O=C(Nc1nccs1)C1CSc2sccc2C1=O (configuration not stated),201 to 203 °C
17,CCCCOCCOc1ccc(-c2ccc3c(c2)C=C(C(=O)Nc2ccc(S(=O)Cc4nncn4CCCC)cc2)CCN3CC(C)C)cc1 (configuration not stated),178 to 180 °C
18,CCn1c(N)c(C(=O)NC)c(=O)c2ccc(-c3ccc(NS(C)(=O)=O)cc3)nc21,> 300 °C
19,Cn1ncc(C(=O)c2ccc(S(C)(=O)=O)c(C3=NOCC3)c2Cl)c1O,> 250 °C
20,O=Cc1ccc(N(c2ccccc2)c2ccccc2)cc1,129 to 130 °C
21,COc1cccc2c(Nc3ccccc3C)c(C(=O)C3CCCCC3)cnc12,115 to 117 °C
22,CC(=O)Nc1nc2c(nc(NC(C)=O)n2Cc2cccs2)c(=O)[nH]1,243 to 244 °C
23,CNC(=O)c1ccccc1Nc1nc(Nc2ccc3c(c2)CCN(C(C)C)CC3)ncc1Cl,140 to 158 °C
24,CSc1ccc(C(CC(F)(F)F)=NO)cc1,106 to 107 °C
25,COc1cc(OC)c2c(=O)[nH]c(-c3cccc(N4CCN(C(C)C(N)=O)CC4)n3)nc2c1 (configuration not stated),149 to 150 °C

row,Compound,melting point
1,Nc1ccccc1Oc1c(C(=O)O)[nH]c2ccccc12,217 to 218 °C
2,CN1CCN(C2c3ccccc3C=Cc3ccc(Br)cc32)CC1 (configuration not stated),128 to 130 °C
3,CCOP(=O)(OCC)C(Nc1ccccn1)P(=O)(OCC)OCC,63 to 66 °C
4,CCOC(=O)NN1CCN(CCCCC(=O)c2ccccc2)CC1,105 to 106 °C
5,COC(=O)c1sccc1Oc1ncc(OC)c(OC)n1,107 to 109 °C
6,CC(CC(=O)O)CC(=O)CCCCCCCCCCC(=O)O (configuration not stated),84 to 85 °C
7,Cc1cc(-c2nc3cccnn3c2-c2ccnc(NC(=O)c3ccc(OC(F)(F)F)cc3)c2)ccc1F,225 to 226 °C
8,COc1ccc(C2CN(C)CCC2=NO)cc1 (configuration not stated),121 to 122 °C
9,O=C1OC(c2ccccc2)(c2ccccc2)C2CN(C3CCN(Cc4ccccc4)CC3)CCN12 (configuration not stated),153 to 155 °C
10,CC(O)CNc1c([N+](=O)[O-])cnc2ccccc12 (configuration not stated),209 to 210 °C
11,CC(C)c1cc(-c2ccc(F)c3ccccc23)nc(Nc2ccccc2)n1,85.7 to 86.3 °C
12,CCN1c2ncccc2C(SC)=Nc2c(C)cc(C)nc21,130 to 132 °C
13,Nc1ncc(-c2ccccc2)nc1Br,148 to 152 °C
14,CNn1c(SC)nnc(C(C)C2CC2)c1=O (configuration not stated),66 to 68 °C
15,Nc1ccc2c(c1)nc(/C=C/c1ccccc1)n2-c1ccccn1,146 to 148 °C
16,Cc1c([N+](=O)[O-])cnc(Oc2ccc(Cl)c(C(F)(F)F)c2)c1Br,73 to 74 °C
17,CC(=Cc1c(-c2ccccc2)nc2sc(C)nn12)C(=O)O,298 to 300 °C
18,O=S(=O)(c1ccccc1)C(CC(F)(F)F)c1ccc(C(O)(C(F)(F)F)C(F)(F)F)cc1 (configuration not stated),151 °C
19,COC(=O)c1ccc2c(c1)CCC(C(N)=O)C2 (configuration not stated),162 to 164 °C
20,NNc1ncnc(Nc2ccc(F)c(C(F)(F)F)c2)n1,181 to 182 °C
21,Nc1nc2ccccc2c2c1nc1n2C(COCc2ccc(F)cc2)COC1 (configuration not stated),134 to 137 °C
22,COc1cc2cc(C)c(CO)c(-c3ccnc(Br)c3)c2cc1OC,106 to 108 °C
23,O=C1c2cc(O)cc(O)c2C(=O)C1c1ccc(O)cc1 (configuration not stated),180 °C
24,CCOC(=O)C(=CNCc1cnsn1)C(=O)c1cc(F)c(F)c(F)c1F,154 to 156 °C
25,CCCCCCCC/C=C\c1ccc(C(=O)NOCc2ccccc2)cc1,70 to 71 °C

row,Compound,melting point
1,COc1ccc(CN(Cc2ccco2)S(=O)(=O)c2ccc(C(=O)O)cc2)cc1,151 to 152 °C
2,COCN1C(C)=C(C(=O)O)[C@H](c2cccc([N+](=O)[O-])c2)C(C(=O)OCOC(=O)C(C)(C)C)=C1C,84 to 85 °C
3,COc1cc(/C=C/C(=O)CC(=O)c2ccc(O)c(OC)c2)ccc1O,170 to 172 °C
4,FC(F)(F)c1ccc(/C=C/c2nc(COc3ccc(-c4nc(Cn5ccnn5)co4)cc3)cs2)cc1,179 to 181 °C
5,N#CC(SSC(C#N)c1c[nH]c2ccccc12)c1c[nH]c2ccccc12 (configuration not stated),169 to 170 °C
6,CS(=O)(=O)Nc1ccc(C(O)CCCNCCC(=O)CCC2CCCC2)cc1 (configuration not stated),101 to 102 °C
7,Cc1cc(C)c(Cn2cc(C(=O)C(=O)NC3=CC(=O)OC3)c3ccccc32)c(C)c1,288 to 290 °C
8,Cn1nc(-c2ccccc2)c(N=O)c1N,230 to 231 °C
9,CCc1nc2c(N)nc3cc(OCC(=O)N4CCOCC4)ccc3c2n1CCOc1ccccc1,208 to 209 °C
10,CCCC1=C(C(=O)OCC)C(c2cccc3c2OCCC3)c2c[nH]nc2N1 (configuration not stated),159 to 161 °C
11,O=C1CCCCN1[C@@H]1c2cc(C(F)(F)F)ccc2OC(CF)(CF)[C@H]1O (relative stereo),184 to 187 °C
12,CC(Cc1c[nH]c2ccccc12)(NC(=O)OC1C2CC3CC(C2)CC1C3)C(=O)NC(CNC(=O)CCC(=O)O)Cc1ccccc1 (configuration not stated),110 to 114 °C
13,CC(=O)Nc1cccc2c(=O)n(C)c3ccccc3c(=O)c12,199 to 201 °C
14,CCN(CC)C(=O)Cc1ccc(C(=O)c2ccc(Cl)cc2)n1C,82 to 85 °C
15,CC1Cc2c(N3CCC(NC(=O)OC(C)(C)C)C3)c(F)cc3c(=O)[nH]c(=O)n1c23 (configuration not stated),203 to 205 °C
16,CCOC(=O)c1cn(C2CC2)c2c(CO)c(N3CCOCC3)c(F)cc2c1=O,212 to 216 °C
17,Cc1ccc(F)cc1C=S,45 to 47 °C
18,O=C(NCc1ccccc1)n1c(=O)sc2c(Cl)cccc21,106 °C
19,COc1ccc(CCNC(=O)C(N)=O)cc1OCCCCO,47 to 49 °C
20,CCCc1ccc(COc2ccc3c(c2)CCC(CN2CC(C(=O)O)C2)=C3C)c(OC)c1,158 to 163 °C
21,O=S1NC(Cc2csc3ccccc23)=NO1 (configuration not stated),134 to 136 °C
22,CC(C)(C)c1cc(Cn2nc(CCCCCCCCc3nn(Cc4cc(C(C)(C)C)c(O)c(C(C)(C)C)c4)c(=O)o3)oc2=O)cc(C(C)(C)C)c1O,142 °C

# Source: a melting point compilation (Tetko et al.; mined from patent text by program, amines drawn as free bases though some values may be those of a salt)
